Reference: publication PMC4264749, “Phlebotomy Treatment for Elimination of Perfluoroalkyl Acids in a Highly Exposed Family: A Retrospective Case-Series” (PLoS ONE, 2014)
Where two headings read alike, the source gives them in different places.

Assays:
[1] = Serum PFAA concentrations in family members during intermittent phlebotomy (HPLC-MS/MS); format: in vivo, human; settings: for Serum concentration before treatment: before phlebotomy; for Serum concentration after treatment: after phlebotomy
Source text: After receiving informed consent, intermittent phlebotomy was undertaken at an overall rate (Table 2) that was equal to or less than the maximum rate of what is done for routine blood donations at the Canadian Blood Services: ∼500 ccs of whole blood every 56 days. Frequency and timing of blood removal was not consistent between family members because of their personal availability, success at each time of venesection, and compliance of each participant. […] Mineral supplementation was discussed and was taken by each participant.
All serum samples were submitted to ALS Laboratories (Edmonton, AB) for quantitative analysis of PFAAs (see Supporting Information, S1 Table). Samples were extracted by solid phase extraction and concentrations of PFHxS, PFOS, and PFOA were determined using high performance liquid chromatography/tandem mass spectrometry. Formic acid (0.1 M) along with a mixture of isotopically labeled PFAAs (Wellington Laboratories, Guelph, Ontario) were added to 1.0 mL of serum. The mixture was vortexed, sonicated, and subjected to solid phase extraction. The extract was concentrated to 100 uL and an instrument performance internal standard was added along with 200 uL of 90% 20 mM aqueous acetic acid/10% methanol. Procedural blanks were run with each set of samples, and method limits of quantification (LOQ) were 0.5 ng/mL for each analyte. For the few PFAA levels that fell below this LOQ (shown as hollow circles in Figs. 1–3), LOQ/√2 (i.e. 0.35 ng/mL) was substituted for purposes of data analysis. PFHxS, PFOS, and PFOA levels in all participating family members were >LOQ throughout the intervention except for 3 PFOS measurements out of 16 total measurements in the 3rd child and one PFOA measurement out of 9 total measurements in the […]. Written informed consent was given by participants (or parents in the case of children) for their clinical records to be used in this study.

[2] = Apparent elimination half-life (HLapp) and phlebotomy efficiency coefficient in treated family members; format: in vivo, human; settings: family members with regular phlebotomy, except parent
Source text: To evaluate the effect of phlebotomy, versus the expected rate of intrinsic elimination, we graphically and statistically compared the observed decreasing trends in each family member (fitted to a simple exponential decay model) with reference population elimination kinetics. Specifically, for the reference population of occupationally exposed retirees, we considered: i) the 95% confidence interval of the geometric mean elimination rate for each PFAA, and ii) the fastest individual rate of elimination rate among the reference population. For comparative purposes, the concentration of each PFAA in serum on the first day of the intervention was taken as time zero, and the models were forced through this starting point.
One metric that was calculated to compare the efficiency of the phlebotomy for removal of different PFAAs in each family member was termed the phlebotomy efficiency coefficient (EC). This was based on the subtractive difference between HLapp (yrs) in each treated family member and the geometric mean HLin (yrs) of the reference population according to Equation 1 . [drawing 1] (1)

[3] = design: method as in PMID 17805419; settings: cited from earlier work
[4] = design: method as in PMID 23980546; settings: urinary excretion, China, cited from earlier work
[5] = design: method as in earlier work; settings: 2009–2011; cited from earlier work

O=S(=O)(O)C(F)(F)C(F)(F)C(F)(F)C(F)(F)C(F)(F)C(F)(F)C(F)(F)C(F)(F)F [PFOS, perfluoroctane sulfonate]
Serum concentration before treatment ([1]; 1st Child): 19.3 ng/mL | Serum concentration ([1]; 1st Child, sampling date 2009.10.12): 14.3 ng/mL | Serum concentration ([1]; 1st Child, sampling date 2009.12.24): 16.1 ng/mL | Serum concentration ([1]; 1st Child, sampling date 2009.6.9): 19.3 ng/mL | Serum concentration ([1]; 1st Child, sampling date 2009.9.9): 14.8 ng/mL | Serum concentration ([1]; 1st Child, sampling date 2010.10.14): 0.73 ng/mL | Serum concentration ([1]; 1st Child, sampling date 2010.1.17): 11.3 ng/mL | Serum concentration ([1]; 1st Child, sampling date 2010.2.11): 6.84 ng/mL | Serum concentration ([1]; 1st Child, sampling date 2010.4.14): 17.9 ng/mL | Serum concentration ([1]; 1st Child, sampling date 2011.12.5): 0.93 ng/mL | Serum concentration ([1]; 1st Child, sampling date 2011.5.17, LOD=0.5ng/mL): <LOD | Serum concentration ([1]; 1st Child, sampling date 2011.8.12, LOD=0.5ng/mL): <LOD | Serum concentration ([1]; 1st Child, sampling date 2012.12.28, LOD=0.5ng/mL): <LOD | Serum concentration ([1]; 1st Child, sampling date 2012.4.24): 2.12 ng/mL | Serum concentration ([1]; 1st Child, sampling date 2012.8.21): 1.44 ng/mL | Serum concentration ([1]; 1st Child, sampling date 2013.3.30): 0.61 ng/mL | Serum concentration ([1]; 1st Child, sampling date 2013.7.30): 1.59 ng/mL | Serum concentration before treatment ([1]; 2nd Child): 59.7 ng/mL | Serum concentration ([1]; 2nd Child, sampling date 2009.10.24): 44.7 ng/mL | Serum concentration ([1]; 2nd Child, sampling date 2009.6.6): 59.7 ng/mL | Serum concentration ([1]; 2nd Child, sampling date 2009.7.2): 51.9 ng/mL | Serum concentration ([1]; 2nd Child, sampling date 2009.7.30): 51.9 ng/mL | Serum concentration ([1]; 2nd Child, sampling date 2009.8.24): 67.8 ng/mL | Serum concentration ([1]; 2nd Child, sampling date 2009.9.27): 41.4 ng/mL | Serum concentration ([1]; 2nd Child, sampling date 2010.1.3): 36.6 ng/mL | Serum concentration ([1]; 2nd Child, sampling date 2010.2.15): 47.7 ng/mL | Serum concentration ([1]; 2nd Child, sampling date 2011.10.2): 1.8 ng/mL | Serum concentration ([1]; 2nd Child, sampling date 2011.12.24): 13.9 ng/mL | Serum concentration ([1]; 2nd Child, sampling date 2011.4.27): 7.0 ng/mL | Serum concentration ([1]; 2nd Child, sampling date 2011.8.14): 4.6 ng/mL | Serum concentration ([1]; 2nd Child, sampling date 2012.12.24): 5.5 ng/mL | Serum concentration ([1]; 2nd Child, sampling date 2012.4.6): 12.2 ng/mL | Serum concentration ([1]; 2nd Child, sampling date 2013.5.11.): 9.2 ng/mL | Serum concentration ([1]; 2nd Child, sampling date 2013.7.15): 9.0 ng/mL | Serum concentration before treatment ([1]; 3rd Child): 87.3 ng/mL | Serum concentration ([1]; 3rd Child, sampling date 2009.10.11): 107.0 ng/mL | Serum concentration ([1]; 3rd Child, sampling date 2009.12.16): 48.9 ng/mL | Serum concentration ([1]; 3rd Child, sampling date 2009.6.1): 87.3 ng/mL | Serum concentration ([1]; 3rd Child, sampling date 2009.7.4): 102.9 ng/mL | Serum concentration ([1]; 3rd Child, sampling date 2009.8.7): 76.5 ng/mL | Serum concentration ([1]; 3rd Child, sampling date 2009.9.7): 113.0 ng/mL | Serum concentration ([1]; 3rd Child, sampling date 2010.1.24): 58.8 ng/mL | Serum concentration ([1]; 3rd Child, sampling date 2010.3.12): 66.3 ng/mL | Serum concentration ([1]; 3rd Child, sampling date 2010.5.23): 52.8 ng/mL | Serum concentration ([1]; 3rd Child, sampling date 2011.1.6): 18.6 ng/mL | Serum concentration ([1]; 3rd Child, sampling date 2011.11.26): 9.2 ng/mL | Serum concentration ([1]; 3rd Child, sampling date 2011.2.24): 11.9 ng/mL | Serum concentration ([1]; 3rd Child, sampling date 2011.4.30): 12.1 ng/mL | Serum concentration ([1]; 3rd Child, sampling date 2011.6.13): 11.5 ng/mL | Serum concentration ([1]; 3rd Child, sampling date 2011.9.27): 4.8 ng/mL | Serum concentration ([1]; 3rd Child, sampling date 2012.10.16): 17.1 ng/mL | Serum concentration ([1]; 3rd Child, sampling date 2012.1.8): 20.8 ng/mL | Serum concentration ([1]; 3rd Child, sampling date 2012.12.9): 10.5 ng/mL | Serum concentration ([1]; 3rd Child, sampling date 2012.3.4): 25.4 ng/mL | Serum concentration ([1]; 3rd Child, sampling date 2012.4.28): 19.8 ng/mL | Serum concentration ([1]; 3rd Child, sampling date 2013.10.27): 12.2 ng/mL | Serum concentration ([1]; 3rd Child, sampling date 2013.2.5): 8.8 ng/mL | Serum concentration ([1]; 3rd Child, sampling date 2013.3.30): 8.0 ng/mL | Serum concentration ([1]; 3rd Child, sampling date 2013.5.5): 12.8 ng/mL | Serum concentration ([1]; 3rd Child, sampling date 2013.7.25): 13.4 ng/mL | Serum concentration ([1]; 3rd Child, sampling date 2013.9.8): 12.0 ng/mL | starting serum concentration relative to 95th percentile among Canadians ([1]; 3 youngest children): 3–5 fold | Serum concentration after treatment ([1]; 4th Child): 5.0 ng/mL | Serum concentration before treatment ([1]; 4th Child): 62.4 ng/mL | Serum concentration ([1]; 4th Child, sampling date 2010.1.24): 26.8 ng/mL | Serum concentration after treatment ([1]; Average of 6 family members): 6.7 ng/mL | Serum concentration before treatment ([1]; Average of 6 family members): 43.4 ng/mL | Serum concentration before treatment ([1]; Parent one): 15.1 ng/mL | Serum concentration ([1]; Parent one, sampling date 2009.10.11): 8.8 ng/mL | Serum concentration ([1]; Parent one, sampling date 2009.10.12): 9.2 ng/mL | Serum concentration ([1]; Parent one, sampling date 2009.11.12): 11.0 ng/mL | Serum concentration ([1]; Parent one, sampling date 2009.12.14): 8.6 ng/mL | Serum concentration ([1]; Parent one, sampling date 2009.2.2): 15.1 ng/mL | Serum concentration ([1]; Parent one, sampling date 2009.5.18): 13.2 ng/mL | Serum concentration ([1]; Parent one, sampling date 2009.6.1): 11.8 ng/mL | Serum concentration ([1]; Parent one, sampling date 2009.7.4): 9.8 ng/mL | Serum concentration ([1]; Parent one, sampling date 2009.9.1): 11.3 ng/mL | Serum concentration ([1]; Parent one, sampling date 2010.10.10): 6.1 ng/mL | Serum concentration ([1]; Parent one, sampling date 2010.1.17): 8.6 ng/mL | Serum concentration ([1]; Parent one, sampling date 2010.3.13): 6.8 ng/mL | Serum concentration ([1]; Parent one, sampling date 2011.1.6): 2.3 ng/mL | Serum concentration ([1]; Parent one, sampling date 2011.11.26): 1.4 ng/mL | Serum concentration ([1]; Parent one, sampling date 2011.2.24): 2.1 ng/mL | Serum concentration ([1]; Parent one, sampling date 2011.4.30): 1.5 ng/mL | Serum concentration ([1]; Parent one, sampling date 2011.6.22): 1.6 ng/mL | Serum concentration ([1]; Parent one, sampling date 2011.8.4): 1.3 ng/mL | Serum concentration ([1]; Parent one, sampling date 2011.9.27): 0.5 ng/mL | Serum concentration ([1]; Parent one, sampling date 2012..12.28): 0.66 ng/mL | Serum concentration ([1]; Parent one, sampling date 2012.1.14): 3.8 ng/mL | Serum concentration ([1]; Parent one, sampling date 2012.11.1): 1.7 ng/mL | Serum concentration ([1]; Parent one, sampling date 2012.3.4): 3.7 ng/mL | Serum concentration ([1]; Parent one, sampling date 2012.4.29): 2.7 ng/mL | Serum concentration ([1]; Parent one, sampling date 2012.7.8): 3.1 ng/mL | Serum concentration ([1]; Parent one, sampling date 2012.8.21): 3.1 ng/mL | Serum concentration ([1]; Parent one, sampling date 2013.10.27): 1.4 ng/mL | Serum concentration ([1]; Parent one, sampling date 2013.2.18): 1.3 ng/mL | Serum concentration ([1]; Parent one, sampling date 2013.3.30): 1.5 ng/mL | Serum concentration ([1]; Parent one, sampling date 2013.5.11): 2.5 ng/mL | Serum concentration ([1]; Parent one, sampling date 2013.7.15): 2.3 ng/mL | Serum concentration ([1]; Parent one, sampling date 2013.9.8): 1.4 ng/mL | Serum concentration before treatment ([1]; Parent two): 16.3 ng/mL | Serum concentration ([1]; Parent two, sampling date 2009.6.1): 16.3 ng/mL | Serum concentration ([1]; Parent two, sampling date 2009.7.7): 10.9 ng/mL | Serum concentration ([1]; Parent two, sampling date 2009.8.24): 10.4 ng/mL | Serum concentration ([1]; Parent two, sampling date 2010.1.3): 5.7 ng/mL | Serum concentration ([1]; Parent two, sampling date 2010.4.11, LOD=0.5ng/mL): 4.4 ng/mL | Serum concentration ([1]; Parent two, sampling date 2012.3.13): 4.1 ng/mL | Serum concentration ([1]; Parent two, sampling date 2013.1.1): 2.5 ng/mL | Serum concentration ([1]; Parent two, sampling date 2013.10.6): 11.0 ng/mL | Serum concentration ([1]; Parent two, sampling date 2013.6.22): 3.4 ng/mL | HLapp compared with geometric mean HLin of reference population [2]: significantly shorter | HLin of fastest eliminator in the reference population ([3]; reference population of occupationally exposed retirees (26 individuals)): 2.4 yrs | 95% confidence interval of the geometric mean HLin ([3]; reference population of occupationally exposed retirees): 4.0–5.8 yrs | intrinsic human elimination half-life (HLin) ([3]; serum, highly contaminated retirees >55 yrs, previously occupationally exposed): 5.4 years | HLin, 95% confidence interval ([3]; serum, retirees >55 yrs, previously occupationally exposed): 3.9–6.9 yrs | HLapp ([4]; males and post-menopausal females): 27 years | HLapp ([4]; reproductive-aged females): 6.2 years | 95th percentile of serum concentration among Canadians [5]: 18 ng/mL
